The source of these data is patent US20060160086A1, “Method for continuous detection of an analyte, trifunctional detecting reagent used and detecting device” (Commissariat A L'Energie Atomique, priority 2002, published 2006).

Ends that are not written are not given here. * marks the point of attachment. Biotin = O=C1N[C@H]2[C@H](CS[C@H]2CCCCC(=O)*)N1

One series addresses T1, neutravidin (Gallus gallus, UniProt P02701).
T1 construct: purchased Pierce 31 000
Nature of the series: Attachment of the fluorescein-labeled tripod Y to neutravidin-coated microtitration plates (fluorescence). The class given is binding. The following applies: neutravidin-coated microplate, 3 hours at ambient temperature, excitation 485 nm / emission 530 nm. The protocol:
100 μl of a solution of neutravidin (sold under the reference 31 000 by the company Pierce) at 5 μg/ml in a 0.1 M potassium phosphate buffer, pH 7.4 are deposited into the wells of black microplates sold under the name High Bind Matrix by the company VWR (reference 80120696). After 16 hours at ambient temperature, the plates are washed with washing buffer and then saturated by depositing 300 μl/well of saturation buffer for 16 hours at ambient temperature. The plates are stored with the same buffer (300 μl/well) at 4° C.
A dilution range for the tripod Y (labeled with fluorescein) synthesized above in example 4, in 0.1 M potassium phosphate buffer, pH 7.4, is prepared by producing a first point of the range at a concentration of 0.5 μM, and then 4 successive ⅓ dilutions (i.e. 0.167 μM; 0.055 μM; 0.0185 μM and 6.2×10^−3 μM). […] The plate is read with an analyst AD system fluorimeter (LJL Biosystem) for reading microplates, at an excitation wavelength of 485 nm and at an emission wavelength of 530 nm, which are the excitation and emission wavelengths corresponding to fluorescein.
The curves obtained with neutravidin (black square) and without neutravidin (black triangle: control) are represented in the attached FIG. 2, in which the fluorescence (in arbitrary units) is expressed as a function of the concentration of tripod Y in accordance with the invention (μM).

In another series the test system is monoclonal antibody SP31. The conditions noted are these: peptide analog of substance P comprising an alanine at position 10 [Ala^10]; cited from earlier work.

T1 sequence (P02701 25-152): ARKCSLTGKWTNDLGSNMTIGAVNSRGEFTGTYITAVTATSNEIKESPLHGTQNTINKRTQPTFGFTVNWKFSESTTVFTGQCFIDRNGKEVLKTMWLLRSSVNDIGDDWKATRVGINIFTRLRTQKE

For “tripod: substance P analog (SEQ ID No. 2) labeled with fluorescein; biotin for attachment to neutravidin support (GATCTGCTGGCATCT; fluorescein label and biotin, positions not given here)”, the “concentration of tripod up to which fluorescence increases proportionally, then plateau (saturation of the neutravidin binding sites)” value in the series with neutravidin is 0.17 µM. Take “KSSK(Biotin)RPAPQQFFGAM-NH2 [substance P analog]”: the “cross reactivity with substance P for the monoclonal antibody SP31” value in the series with monoclonal antibody SP31 is recorded as 13%.
